Values quoted from earlier work, collected in patent US20260158011A1 (Achieve Life Sciences, Inc., priority 2023, published 2026).
Where two headings read alike, the source gives them in different places.

Experiments:
smokers [1] = settings: Cochrane, Chantix (n > 7000); cited from earlier work
smokers [2] = settings: cited from earlier work
[3] = molecular target: neuronal alpha4, beta2 (α4β2) receptors (Homo sapiens, UniProt P17787+P43681); settings: background studies; cited from earlier work
Sequence of neuronal alpha4, beta2 (α4β2) receptors (P43681 29-627 limits assumed): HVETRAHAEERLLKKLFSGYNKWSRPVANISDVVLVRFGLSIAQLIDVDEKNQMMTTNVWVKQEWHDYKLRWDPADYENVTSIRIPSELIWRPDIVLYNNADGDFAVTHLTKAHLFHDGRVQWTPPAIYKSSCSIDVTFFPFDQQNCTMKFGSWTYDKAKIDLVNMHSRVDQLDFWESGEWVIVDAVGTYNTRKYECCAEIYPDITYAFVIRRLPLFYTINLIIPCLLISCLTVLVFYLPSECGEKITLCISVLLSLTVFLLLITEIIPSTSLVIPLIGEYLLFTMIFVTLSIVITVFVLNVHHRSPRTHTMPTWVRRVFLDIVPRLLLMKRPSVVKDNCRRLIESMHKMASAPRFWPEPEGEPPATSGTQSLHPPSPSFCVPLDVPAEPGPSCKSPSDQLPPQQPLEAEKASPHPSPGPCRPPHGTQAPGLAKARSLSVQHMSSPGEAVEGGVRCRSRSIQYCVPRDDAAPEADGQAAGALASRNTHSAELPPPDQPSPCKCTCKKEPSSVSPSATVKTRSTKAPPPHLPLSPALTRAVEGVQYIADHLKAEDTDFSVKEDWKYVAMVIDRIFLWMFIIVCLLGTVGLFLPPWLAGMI
Sequence of neuronal alpha4, beta2 (α4β2) receptors (P17787 26-502): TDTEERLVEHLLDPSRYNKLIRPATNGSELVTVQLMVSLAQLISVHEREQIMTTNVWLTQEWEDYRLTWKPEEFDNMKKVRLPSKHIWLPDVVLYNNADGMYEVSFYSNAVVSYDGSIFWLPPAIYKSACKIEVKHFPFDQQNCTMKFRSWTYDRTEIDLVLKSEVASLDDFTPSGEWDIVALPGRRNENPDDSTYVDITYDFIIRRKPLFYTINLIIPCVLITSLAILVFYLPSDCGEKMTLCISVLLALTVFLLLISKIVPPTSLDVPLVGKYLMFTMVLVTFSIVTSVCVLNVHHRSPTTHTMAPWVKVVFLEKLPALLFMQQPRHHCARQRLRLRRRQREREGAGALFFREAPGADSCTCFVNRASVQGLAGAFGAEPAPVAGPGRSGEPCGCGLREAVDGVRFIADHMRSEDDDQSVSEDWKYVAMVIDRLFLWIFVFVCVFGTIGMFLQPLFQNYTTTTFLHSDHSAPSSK

Q: With `c1cnc2cc3c(cc2n1)[C@@H]1CNC[C@H]3C1` [Chantix ®, varenicline] as the molecule, how does the “Serious AEs” value (smokers [1]) read?
A: 3.3%

Q: And the “TEAE: Abnormal dreams” value (smokers [1])?
A: 12.5%

Q: And the “TEAE: Headache” value (smokers [1])?
A: 12.7%

Q: And the “TEAE: Insomnia” value (smokers [1])?
A: 14.2%

Q: And the “TEAE: Nausea” value (smokers [1])?
A: 27.8%

Q: And the “OR at End of Treatment” value (smokers [2]; Chantix 12 weeks (EAGLES), versus placebo)?
A: 4.0

Q: And the “Drug-placebo difference in quit rate at End of Treatment” value (smokers [2]; Chantix 12 weeks (EAGLES))?
A: 24.3%

Q: And the “Quit Rate at End of Treatment” value (smokers [2]; Chantix 12 weeks (EAGLES))?
A: 38.0%

Q: And the “OR at 4 Weeks Off Treatment” value (smokers [2]; Chantix (EAGLES), versus placebo)?
A: 3.5

Q: What about the “Drug-placebo difference in quit rate at 4 Weeks Off Treatment” value (smokers [2]; Chantix (EAGLES)) of the same molecule?
A: 20.7%

Q: And the “Quit Rate at 4 Weeks Off Treatment” value (smokers [2]; Chantix (EAGLES))?
A: 33.2%

Q: What about the “OR at 4 Weeks Treatment” value (smokers [2]; Chantix (ONCKEN), versus placebo) of the same molecule?
A: 3.1

Q: What about the “Drug-placebo difference in quit rate at 4 Weeks Treatment” value (smokers [2]; Chantix (ONCKEN)) of the same molecule?
A: 21.4%

Q: What about the “Quit Rate at 4 Weeks Treatment” value (smokers [2]; Chantix (ONCKEN)) of the same molecule?
A: 37.7%

Q: And the “Quit rate at 24 weeks” value (smokers [2]; EAGLES, U.S. patients (N=1065))?
A: 16%

Q: And the “Overall quit rate at 24 weeks” value (smokers [2]; EAGLES, all regions)?
A: 22%

Q: And the “CAR weeks 9-24 % (95% CI)” value (smokers [2]; EAGLES, region Non-U.S.)?
A: 27.9 (25.2-30.8) % (95% CI)

Q: And the “Versus placebo OR (95% CI), CAR weeks 9-24” value (smokers [2]; EAGLES, region Non-U.S.)?
A: 2.80 (2.20-3.55)

Q: And the “CAR weeks 9-24 % (95% CI)” value (smokers [2]; EAGLES, region U.S.)?
A: 16.1 (14.0-18.4) % (95% CI)

Q: What about the “Versus placebo OR (95% CI), CAR weeks 9-24” value (smokers [2]; EAGLES, region U.S.) of the same molecule?
A: 2.66 (1.99-3.55)

Q: Which “Binding to α4β2 receptors” value [3] does the source give for `CN1CCCC1c1cccnc1` (stereo not drawn) [nicotine, reference compound] here?
A: bind strongly and preferentially
